Assay results reported in US10131652B2, “Pyrimidinyloxy benzene derivatives as herbicides” (E. I. DU PONT DE NEMOURS AND COMPANY, priority 2014, dated 2018).

How the values were obtained:
Format in all cases: in vivo
[1] = system: galium (catchweed bedstraw, Galium aparine); experiment: Test D pre-/postemergence plant response
Procedure, shortened: (§1)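 Plants are held in a greenhouse 13 to 15 days after spraying, then injury is rated by eye relative to controls on a 0 to 100 scale. Treatments are preemergence on freshly sown loam/sand pots or postemergence at 1- to 4-leaf stage in peat-based medium; surfactant-containing solvent formulation.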

soybean (Glycine max) = experiment: Test D pre-/postemergence plant response
Procedure, shortened: as §1

[2] = system: ragweed (common ragweed, Ambrosia elatior); experiment: Test D pre-/postemergence plant response
Procedure, shortened: as §1

[3] = system: lambsquarters (Chenopodium album); experiment: Test D pre-/postemergence plant response
Procedure, shortened: as §1

[4] = system: Italian ryegrass (Lolium multiflorum); experiment: Test D pre-/postemergence plant response
Procedure, shortened: as §1

[5] = system: waterhemp (common waterhemp, Amaranthus rudis); experiment: Test D pre-/postemergence plant response
Procedure, shortened: as §1

[6] = system: morningglory (Ipomoea coccinea); experiment: Test D pre-/postemergence plant response
Procedure, shortened: as §1

corn (Zea mays) [7] = experiment: Test D pre-/postemergence plant response
Procedure, shortened: as §1

[8] = system: yellow nutsedge (Cyperus esculentus); experiment: Test D pre-/postemergence plant response
Procedure, shortened: as §1

[9] = system: winter wheat (Triticum aestivum); experiment: Test D pre-/postemergence plant response
Procedure, shortened: as §1

[10] = system: large (Lg) crabgrass (Digitaria sanguinalis); experiment: Test D pre-/postemergence plant response
Procedure, shortened: as §1

[11] = system: pigweed (Amaranthus retroflexus); experiment: Test B pre-/postemergence plant response
Procedure, shortened: (§2)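 Greenhouse pots, loam/sand soil; compound formulated with surfactant in non-phytotoxic solvent. Preemergence soil spray and postemergence spray at 1–2 leaf stage run simultaneously. Visual injury, 0–100, about 10 days post-treatment.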

[12] = system: giant foxtail (Setaria faberii); experiment: Test B pre-/postemergence plant response
Procedure, shortened: as §2

corn (Zea mays) [13] = experiment: Test B pre-/postemergence plant response
Procedure, shortened: as §2

[14] = system: wheat (Triticum aestivum); experiment: Test B pre-/postemergence plant response
Procedure, shortened: as §2

[15] = system: barnyardgrass (Echinochloa crus-galli); experiment: Test B pre-/postemergence plant response
Procedure, shortened: as §2

[16] = Postemergence, 31 g ai/ha, scale 0 to 100 (0 no effect, 100 complete control)
[17] = Postemergence, 62 g ai/ha, scale 0 to 100, 0 no effect, 100 complete control
[18] = Postemergence, 125 g ai/ha, scale 0 to 100, 0 no effect, 100 complete control
[19] = Preemergence, 8 g ai/ha, scale 0 to 100 (0 no effect, 100 complete control)
[20] = Preemergence, 16 g ai/ha, scale 0 to 100 (0 no effect, 100 complete control)
[21] = Preemergence, 31 g ai/ha, scale 0 to 100 (0 no effect, 100 complete control)
[22] = Preemergence, 62 g ai/ha, scale 0 to 100 (0 no effect, 100 complete control)
[23] = Postemergence, 16 g ai/ha, scale 0 to 100 (0 no effect, 100 complete control)
[24] = 31 g ai/ha, Preemergence, 0 to 100 scale where 0 is no effect and 100 is complete control
[25] = 125 g ai/ha, postemergence, 0 to 100 scale, 0 no effect, 100 complete control
[26] = Postemergence, 31 g ai/ha, 0 to 100 scale (0 no effect, 100 complete control)
[27] = Preemergence, 125 g ai/ha, 0 to 100 scale (0 no effect, 100 complete control)

FC(F)(Cl)c1cc(-c2ccccc2Oc2ncc(Cl)cn2)no1 [Compound 143]
Galium plant response rating [1, 16]: 70
Plant response rating, Galium [1, 17]: 70
Plant response rating, Galium [1, 18]: 100
Plant response rating, Galium [1, 19]: 10
Plant response rating, Galium [1, 20]: 10
Plant response rating, Galium [1, 21]: 80
Plant response rating, Galium [1, 22]: 80
Soybean plant response rating (soybean (Glycine max); [16]): 30
Plant response rating, Soybean (soybean (Glycine max); [17]): 60
Plant response rating, Soybean (soybean (Glycine max); [18]): 60
Plant response rating, Soybean (soybean (Glycine max); [19]): 0
Plant response rating, Soybean (soybean (Glycine max); [20]): 5
Plant response rating, Soybean (soybean (Glycine max); [21]): 10
Plant response rating, Soybean (soybean (Glycine max); [22]): 25
Ragweed plant response rating [2, 16]: 5
Plant response rating, Ragweed [2, 17]: 10
Plant response rating, Ragweed [2, 18]: 30
Plant response rating, Ragweed [2, 19]: 0
Plant response rating, Ragweed [2, 20]: 0
Plant response rating, Ragweed [2, 21]: 30
Plant response rating, Ragweed [2, 22]: 40
Lambsquarters plant response rating [3, 16]: 80
Plant response rating, Lambsquarters [3, 17]: 98
Plant response rating, Lambsquarters [3, 18]: 100
Plant response rating, Lambsquarters [3, 19]: 25
Plant response rating, Lambsquarters [3, 20]: 70
Plant response rating, Lambsquarters [3, 21]: 85
Plant response rating, Lambsquarters [3, 22]: 85
Ryegrass, Italian plant response rating [4, 16]: 0
Plant response rating, Ryegrass, Italian [4, 17]: 0
Plant response rating, Ryegrass, Italian [4, 18]: 15
Plant response rating, Ryegrass, Italian [4, 19]: 0
Plant response rating, Ryegrass, Italian [4, 20]: 5
Plant response rating, Ryegrass, Italian [4, 21]: 5
Plant response rating, Ryegrass, Italian [4, 22]: 70
Waterhemp plant response rating [5, 16]: 100
Plant response rating, Waterhemp [5, 17]: 100
Plant response rating, Waterhemp [5, 18]: 100
Plant response rating, Waterhemp [5, 19]: 95
Plant response rating, Waterhemp [5, 20]: 100
Plant response rating, Waterhemp [5, 21]: 98
Plant response rating, Waterhemp [5, 22]: 100
Plant response rating, Morningglory [6, 17]: 90
Plant response rating, Morningglory [6, 18]: 100
Plant response rating, Morningglory [6, 19]: 0
Plant response rating, Morningglory [6, 20]: 10
Plant response rating, Morningglory [6, 21]: 35
Plant response rating, Morningglory [6, 22]: 55
Corn plant response rating (corn (Zea mays) [7]; [23]): 5
Corn plant response rating (corn (Zea mays) [7]; [16]): 5
Plant response rating, Corn (corn (Zea mays) [7]; [17]): 5
Plant response rating, Corn (corn (Zea mays) [7]; [18]): 10
Plant response rating, Corn (corn (Zea mays) [7]; [19]): 0
Plant response rating, Corn (corn (Zea mays) [7]; [20]): 0
Plant response rating, Corn (corn (Zea mays) [7]; [21]): 5
Plant response rating, Corn (corn (Zea mays) [7]; [22]): 100
Nutsedge, Yellow plant response rating [8, 16]: 5
Plant response rating, Nutsedge, Yellow [8, 17]: 5
Plant response rating, Nutsedge, Yellow [8, 18]: 5
Plant response rating, Nutsedge, Yellow [8, 19]: 0
Plant response rating, Nutsedge, Yellow [8, 20]: 0
Plant response rating, Nutsedge, Yellow [8, 21]: 0
Plant response rating, Nutsedge, Yellow [8, 22]: 5
Wheat plant response rating [9, 16]: 5
Plant response rating, Wheat [9, 17]: 5
Plant response rating, Wheat [9, 18]: 5
Plant response rating, Wheat [9, 19]: 0
Plant response rating, Wheat [9, 20]: 0
Plant response rating, Wheat [9, 21]: 0
Plant response rating, Wheat [9, 22]: 0
Crabgrass, Large plant response rating [10, 23]: 10
Crabgrass, Large plant response rating [10, 16]: 10
Plant response rating, Crabgrass, Large [10, 17]: 15
Plant response rating, Crabgrass, Large [10, 18]: 35
Plant response rating, Crabgrass, Large [10, 19]: 60
Plant response rating, Crabgrass, Large [10, 20]: 98
Plant response rating, Crabgrass, Large [10, 21]: 100
Plant response rating, Crabgrass, Large [10, 22]: 100
Plant response rating, Pigweed [11, 24]: 90
Plant response rating, Pigweed [11, 25]: 100
Plant response rating, Pigweed [11, 26]: 90
Pigweed plant response rating [11, 27]: 100
Plant response rating, Foxtail, Giant [12, 24]: 70
Plant response rating, Foxtail, Giant [12, 25]: 80
Plant response rating, Foxtail, Giant [12, 26]: 10
Foxtail, Giant plant response rating [12, 27]: 100
Plant response rating, Corn (corn (Zea mays) [13]; [25]): 30
Plant response rating, Corn (corn (Zea mays) [13]; [26]): 40
Plant response rating, Wheat [14, 25]: 30
Plant response rating, Wheat [14, 26]: 20
Plant response rating, Barnyardgrass [15, 24]: 20
Plant response rating, Barnyardgrass [15, 25]: 90
Plant response rating, Barnyardgrass [15, 26]: 10
Barnyardgrass plant response rating [15, 27]: 90
